Our source for the IC50 values is US10442803B2, “Tricyclic heterocycles as bet protein inhibitors” (Incyte Corporation, priority 2013, dated 2019).

pIC50: −log10 of the molar value. Structures can show the parent of a compound that is named as a salt.

One may read the pIC50 as the negative decadic logarithm of the IC50, by convention in mol/L.

For this experiment, the system named is KMS.12.BM cells. Kind of experiment: KMS.12.BM cell viability assay. It is filed as cell-based. Conditions: 72 h; KMS.12.BM human myeloma cells, 3 days, Cell Titer-GLO ATP quantitation; read-out: KMS cellular IC50. An outline of the steps: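 IC50 derived from luminescent ATP quantitation (Cell Titer-GLO) of viable cells after 3-day compound treatment. KMS.12.BM human myeloma line seeded at 5000 cells/well in RPMI with 10% FBS.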
In general terms: ATP-based viability assays read luminescence as a measure of living cells.
Take `CCC(=O)N1CC(n2ccc(-c3cc4c(ccc5nnc(C)n54)n3Cc3cccc(Cl)c3)n2)C1` [Example 163, 6-(3-Chlorobenzyl)-1-methyl-7-[1-(1-propionylazetidin-3-yl)-1H-pyrazol-3-yl]-6H-pyrrolo[2,3-e][1,2,4]triazolo[4,3-a]pyridine trifluoroacetate salt]: the pIC50 was at least 6.00.

Consider `Cc1nnc2ccc3c(cc(-c4ccn(C5CN(C(=O)C6CC6)C5)n4)n3Cc3cccc(Cl)c3)n12` [Example 164, 6-(3-Chlorobenzyl)-7-{1-[1-(cyclopropylcarbonyl)azetidin-3-yl]-1H-pyrazol-3-yl}-1-methyl-6H-pyrrolo[2,3-e][1,2,4]triazolo[4,3-a]pyridine trifluoroacetate salt], for which the pIC50 is at least 6.00.

Consider `Cc1nnc2ccc3c(cc(-c4ccn(C5CN(S(=O)(=O)C6CC6)C5)n4)n3Cc3cccc(Cl)c3)n12` [Example 165, 6-(3-Chlorobenzyl)-7-{1-[1-(cyclopropylsulfonyl)azetidin-3-yl]-1H-pyrazol-3-yl}-1-methyl-6H-pyrrolo[2,3-e][1,2,4]triazolo[4,3-a]pyridine trifluoroacetate salt], for which the pIC50 is at least 6.00.

For the compound `CCS(=O)(=O)N1CC(n2ccc(-c3cc4c(ccc5nnc(C)n54)n3Cc3cccc(Cl)c3)n2)C1` [Example 166, 6-(3-Chlorobenzyl)-7-{1-[1-(ethylsulfonyl)azetidin-3-yl]-1H-pyrazol-3-yl}-1-methyl-6H-pyrrolo[2,3-e][1,2,4]triazolo[4,3-a]pyridine trifluoroacetate salt], the pIC50 was at least 6.00.

As for `CCOC(=O)N1CC(n2ccc(-c3cc4c(ccc5nnc(C)n54)n3Cc3cccc(Cl)c3)n2)C1` [Example 167, Ethyl 3-{3-[6-(3-chlorobenzyl)-1-methyl-6H-pyrrolo[2,3-e][1,2,4]triazolo[4,3-a]pyridin-7-yl]-1H-pyrazol-1-yl}azetidine-1-carboxylate trifluoroacetate salt], the pIC50 was at least 6.00.

Take `Cc1nnc2ccc3c(cc(-c4ccn(CCC(=O)NC5COC5)n4)n3Cc3cccc(Cl)c3)n12` [Example 168, 3-{3-[6-(3-Chlorobenzyl)-1-methyl-6H-pyrrolo[2,3-e][1,2,4]triazolo[4,3-a]pyridin-7-yl]-1H-pyrazol-1-yl}-N-oxetan-3-ylpropanamide trifluoroacetate salt]: the pIC50 was at least 6.00.

For the compound `Cc1nnc2ccc3c(cc(-c4ccn(CCC(=O)N5CCOCC5)n4)n3Cc3cccc(Cl)c3)n12` [Example 169, 6-(3-Chlorobenzyl)-1-methyl-7-[1-(3-morpholin-4-yl-3-oxopropyl)-1H-pyrazol-3-yl]-6H-pyrrolo[2,3-e][1,2,4]triazolo[4,3-a]pyridine trifluoroacetate salt], the pIC50 was at least 6.00.

For `Cc1nnc2ccc3c(cc(-c4ccn(CCC(=O)NC5CCOCC5)n4)n3Cc3cccc(Cl)c3)n12` [Example 170, 3-{3-[6-(3-Chlorobenzyl)-1-methyl-6H-pyrrolo[2,3-e][1,2,4]triazolo[4,3-a]pyridin-7-yl]-1H-pyrazol-1-yl}-N-(tetrahydro-2H-pyran-4-yl)propanamide trifluoroacetate salt], the pIC50 is at least 6.00.

As for `Cc1nnc2ccc3c(cc(-c4ccn(CCC(=O)NC5CN(C)C5)n4)n3Cc3cccc(Cl)c3)n12` [Example 171, 3-{3-[6-(3-Chlorobenzyl)-1-methyl-6H-pyrrolo[2,3-e][1,2,4]triazolo[4,3-a]pyridin-7-yl]-1H-pyrazol-1-yl}-N-(1-methylazetidin-3-yl)propanamide bis(trifluoroacetate) salt], the pIC50 is at least 6.00.

`Cc1nnc2ccc3c(cc(-c4c[nH]cn4)n3Cc3cccc(Cl)c3)n12` [Example 172, 6-(3-Chlorobenzyl)-7-(1H-imidazol-4-yl)-1-methyl-6H-pyrrolo[2,3-e][1,2,4]triazolo[4,3-a]pyridine bis(trifluoroacetate) salt]: the pIC50 is at least 6.00.

For `Cc1nnc2ccc3c(cc(-c4ccn(CCCO)n4)n3Cc3cccc(Cl)c3)n12` [Example 173, 3-{3-[6-(3-Chlorobenzyl)-1-methyl-6H-pyrrolo[2,3-e][1,2,4]triazolo[4,3-a]pyridin-7-yl]-1H-pyrazol-1-yl}propan-1-ol trifluoroacetate salt], the pIC50 is at least 6.00.

As for `CNC(=O)CCn1ccc(-c2cc3c(ccc4nnc(C)n43)n2Cc2cccc(Cl)c2)n1` [Example 174, 3-{3-[6-(3-Chlorobenzyl)-1-methyl-6H-pyrrolo[2,3-e][1,2,4]triazolo[4,3-a]pyridin-7-yl]-1H-pyrazol-1-yl}-N-methylpropanamide trifluoroacetate salt], the pIC50 is at least 6.00.

`CCNC(=O)CCn1ccc(-c2cc3c(ccc4nnc(C)n43)n2Cc2cccc(Cl)c2)n1` [Example 175, 3-{3-[6-(3-Chlorobenzyl)-1-methyl-6H-pyrrolo[2,3-e][1,2,4]triazolo[4,3-a]pyridin-7-yl]-1H-pyrazol-1-yl}-N-ethylpropanamide trifluoroacetate salt]: the pIC50 is at least 6.00.

Take `Cc1nnc2ccc3c(cc(-c4ccn(CCC(=O)NC(C)(C)C)n4)n3Cc3cccc(Cl)c3)n12` [Example 176, N-(tert-Butyl)-3-{3-[6-(3-chlorobenzyl)-1-methyl-6H-pyrrolo[2,3-e][1,2,4]triazolo[4,3-a]pyridin-7-yl]-1H-pyrazol-1-yl}propanamide trifluoroacetate salt]: the pIC50 is at least 6.00.

Consider `Cc1nnc2ccc3c(cc(-c4ccn(C5COC5)n4)n3Cc3cccc(Cl)c3)n12` [Example 177, 6-(3-Chlorobenzyl)-1-methyl-7-(1-oxetan-3-yl-1H-pyrazol-3-yl)-6H-pyrrolo[2,3-e][1,2,4]triazolo[4,3-a]pyridine trifluoroacetate salt], for which the negative logarithm of the IC50 (pIC50) is at least 6.00.

For the compound `Cc1nnc2ccc3c(cc(-c4ccn(CCO)n4)n3Cc3cccc(Cl)c3)n12` [Example 178, 2-{3-[6-(3-Chlorobenzyl)-1-methyl-6H-pyrrolo[2,3-e][1,2,4]triazolo[4,3-a]pyridin-7-yl]-1H-pyrazol-1-yl}ethanol trifluoroacetate salt], the pIC50 was at least 6.00.

Regarding `Cc1nnc2ccc3c(cc(-c4ccn(C5CN(CCO)C5)n4)n3Cc3cccc(Cl)c3)n12` [Example 179, 2-(3-{3-[6-(3-Chlorobenzyl)-1-methyl-6H-pyrrolo[2,3-e][1,2,4]triazolo[4,3-a]pyridin-7-yl]-1H-pyrazol-1-yl}azetidin-1-yl)ethanol bis(trifluoroacetate) salt], the pIC50 is at least 6.00.

For the compound `Cc1nnc2ccc3c(cc(-c4ccn(C5CN(C)C5)n4)n3Cc3cccc(Cl)c3)n12` [Example 180, 6-(3-Chlorobenzyl)-1-methyl-7-[1-(1-methylazetidin-3-yl)-1H-pyrazol-3-yl]-6H-pyrrolo[2,3-e][1,2,4]triazolo[4,3-a]pyridine bis(trifluoroacetate) salt], the pIC50 is at least 6.00.

Consider `Cc1nnc2ccc3c(cc(-c4ccn(C5CN(CCC#N)C5)n4)n3Cc3cccc(Cl)c3)n12` [Example 181, 3-(3-{3-[6-(3-Chlorobenzyl)-1-methyl-6H-pyrrolo[2,3-e][1,2,4]triazolo[4,3-a]pyridin-7-yl]-1H-pyrazol-1-yl}azetidin-1-yl)propanenitrile bis(trifluoroacetate) salt], for which the pIC50 is at least 6.00.
